Reference: patent US20160015064A1, “COMPOUNDS, COMPOSITIONS, AND METHODS FOR MODULATING SWEET TASTE” (CHROMOCELL CORPORATION, priority 2013, published 2016)

Assays:
[1] = tested on: perception of the sweet taste of an aqueous solution of sweetener; assay: Ranking sip and spit test of sweetness perception (R index); assay type: in vivo, humans; details: vs negative control
Procedure: The effect of the test compounds on the perception of the sweet taste of an aqueous solution of sweetener in humans was evaluated using a ranking “sip and spit” method.
(§1) The aqueous sweetener solutions were prepared by adding, fructose, sucrose or glucose (by weight), to water to achieve the desired concentration.
(§2) Compounds were first prepared as a 500-fold concentrated stock solution in 100% ethanol. These concentrated stocks were then added to the aqueous sweetener solutions to result in a final ethanol concentration of 0.2%. The control (positive and negative) samples were also normalized to 0.2% ethanol.
In the ranking test used for compound evaluation, taste panelists (n=15), rank samples in increasing order of sweetness. One set, comprising of 6 samples, was presented to each panelists at a given time and are asked to rank them in order of increasing sweetness.
Panelists were instructed not to eat or drink (except water) for at least 1 h before the test. During the test, panelists were instructed to sip each sample, swirl it around their mouth and then expectorate. After tasting each set, panelists were instructed to rank the 6 samples within the set from least sweet to most sweet. Where rank 1—is lowest in sweetness and rank 6—is highest in sweetness. Panelists cleansed their palates by rinsing with water, eating a cracker and waiting for an interval of 10 minutes. All samples were tasted at ambient temperatures. Each sample was tasted twice.
R index analysis was utilized to determine the degree of difference between a test and control sample. It indicates the level of discrimination between two samples. […] A positive control sample was used to assess the ability of the panelists to accurately discriminate sweetness perception differences from the negative control.

[2] = tested on: perception of the sweet taste of an aqueous solution of sweetener; assay: Two-alternative forced choice sip and spit method (2AFC); assay type: in vivo, humans
Procedure: The effect of the test compounds on the perception of the sweet taste of an aqueous solution of sweetener in humans was evaluated using a two-alternative forced choice “sip and spit” method (2AFC).
as §1
as §2, with “0.2% ethanol. This level of ethanol was not seen to contribute any perceived sweetness.” for “0.2% ethanol.”
The 2AFC test used for compound evaluation was a blind and randomized test where taste panelists (n=15) evaluate a pair of sweetener solutions at a time—one sample contains aqueous sweetener solution plus compound (i.e. test) while the other contains aqueous sweetener solution at higher concentration without compound (i.e. positive control). Each test sample was compared against a positive control. For example, if the test sample contained 1× sweetener concentration with compound (e.g. 5% sucrose with compound), the positive control sample contained a 1.1× sweetener concentration (e.g. 5.5% sucrose without compound).
Panelists were instructed not to eat or drink (except water) for at least 1 h before the test. During the test, panelists were instructed to sip each sample, swirl it around their mouth and then expectorate. After tasting each sample in the pair, panelists were instructed to record the sample that is “sweeter” in taste. Panelists cleansed their palates by rinsing with water, eating a cracker and waiting for an interval of about 5 minutes. Each pair was tasted twice. All samples were tasted at ambient temperatures. Data were analyzed using binomial probabilities.
Approximate levels of sweetness enhancement in column 5 of Table 2 were calculated as follows:
Approximate levels of sweetness enhancement=Sweetener concentration of positive control surpassed by the test sample, divided by sweetener concentration for compound-containing sample (e.g. 1.15×=5.75% sucrose/5% sucrose).

[3] = test sample 4% fructose, compound 25 ppm with positive 2AFC

COc1ccc(C2CC(=O)c3c(O)cccc3O2)cc1O (single isomer, unassigned) [Compound 2, 5-hydroxy-2-(3-hydroxy-4-methoxyphenyl)chroman-4-one]
R Index Score ([1]; 4% fructose test sample, compound 10 ppm): 81 | R Index Score ([1]; 5% sucrose test sample, compound 10 ppm, significant at R index ≧60): 90 | Fold increase in perceived sweetness [2, 3]: >1.20X | Fold increase in perceived sweetness ([2]; test sample 5% sucrose, compound 15, 25 ppm with positive 2AFC): >1.20X | Fold increase in perceived sweetness ([2]; test sample 6.5% glucose, compound 10, 20, 25 ppm with positive 2AFC): >1.15X

COc1ccc(C2CC(=O)c3c(O)cccc3O2)cc1O (single isomer, unassigned) [Compound 3, 5-hydroxy-2-(3-hydroxy-4-methoxyphenyl)chroman-4-one]
R Index Score ([1]; 5% sucrose test sample, compound 2.5 ppm): 78 | Fold increase in perceived sweetness [2, 3]: >1.25X | Fold increase in perceived sweetness ([2]; test sample 5% sucrose, compound 15 ppm with positive 2AFC, positive control surpassed / test sweetener concentration): >1.20X | Fold increase in perceived sweetness ([2]; test sample 6.5% glucose, compound 25 ppm with positive 2AFC): >1.20X
